{"source": "ChEMBL document CHEMBL5696442", "about": "“Discovery of type II inhibitors of TGFβ-activated kinase 1 (TAK1) and mitogen-activated protein kinase kinase kinase kinase 2 (MAP4K2)” (J Med Chem, 2015)", "key": {"[1]": {"molecular_target": "Casein kinase I isoform epsilon (Homo sapiens) (UniProt P49674)", "sequence (P49674 whole entry, looked up, canonical isoform)": "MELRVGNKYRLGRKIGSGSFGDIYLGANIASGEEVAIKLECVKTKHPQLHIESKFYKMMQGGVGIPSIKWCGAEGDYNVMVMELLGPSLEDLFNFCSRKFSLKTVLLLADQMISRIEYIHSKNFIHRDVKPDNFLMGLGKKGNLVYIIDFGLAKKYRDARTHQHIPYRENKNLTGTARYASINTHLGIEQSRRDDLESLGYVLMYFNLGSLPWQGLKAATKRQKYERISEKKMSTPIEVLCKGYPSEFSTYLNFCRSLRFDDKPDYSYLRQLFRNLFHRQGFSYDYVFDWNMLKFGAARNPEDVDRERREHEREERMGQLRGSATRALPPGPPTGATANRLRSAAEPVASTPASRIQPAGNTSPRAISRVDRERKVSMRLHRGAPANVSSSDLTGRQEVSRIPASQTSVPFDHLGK", "assay": "Inhibition of CK1e Lys2 labeling site in human Huh-7 cells at 1 uM by KiNativ Profiling analysis relative to control", "assay_type": "cell-based"}, "[2]": {"molecular_target": "5'-AMP-activated protein kinase catalytic subunit alpha-1 (Homo sapiens) (UniProt Q13131)", "sequence (Q13131 whole entry, looked up)": "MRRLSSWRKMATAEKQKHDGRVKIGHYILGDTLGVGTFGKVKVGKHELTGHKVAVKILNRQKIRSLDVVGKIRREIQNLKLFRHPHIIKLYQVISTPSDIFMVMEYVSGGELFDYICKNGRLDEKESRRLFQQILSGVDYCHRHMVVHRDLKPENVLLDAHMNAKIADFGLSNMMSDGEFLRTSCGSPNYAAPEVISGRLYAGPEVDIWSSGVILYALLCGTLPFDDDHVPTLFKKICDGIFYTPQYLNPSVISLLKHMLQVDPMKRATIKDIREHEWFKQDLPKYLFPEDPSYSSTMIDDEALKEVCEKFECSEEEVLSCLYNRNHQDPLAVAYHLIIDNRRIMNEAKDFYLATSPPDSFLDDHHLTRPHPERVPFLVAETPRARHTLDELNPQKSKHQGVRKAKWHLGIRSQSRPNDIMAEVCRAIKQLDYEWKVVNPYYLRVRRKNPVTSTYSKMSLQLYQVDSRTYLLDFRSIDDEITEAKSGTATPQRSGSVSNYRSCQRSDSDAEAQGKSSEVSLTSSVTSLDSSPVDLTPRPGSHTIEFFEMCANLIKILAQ", "assay": "Inhibition of AMPKa1 ATP labeling site in human Huh-7 cell lysate at 1 uM by KiNativ Profiling analysis relative to control", "assay_type": "subcellular"}, "[3]": {"molecular_target": "Serine/threonine-protein kinase Nek3 (Homo sapiens) (UniProt P51956)", "sequence (P51956 whole entry)": "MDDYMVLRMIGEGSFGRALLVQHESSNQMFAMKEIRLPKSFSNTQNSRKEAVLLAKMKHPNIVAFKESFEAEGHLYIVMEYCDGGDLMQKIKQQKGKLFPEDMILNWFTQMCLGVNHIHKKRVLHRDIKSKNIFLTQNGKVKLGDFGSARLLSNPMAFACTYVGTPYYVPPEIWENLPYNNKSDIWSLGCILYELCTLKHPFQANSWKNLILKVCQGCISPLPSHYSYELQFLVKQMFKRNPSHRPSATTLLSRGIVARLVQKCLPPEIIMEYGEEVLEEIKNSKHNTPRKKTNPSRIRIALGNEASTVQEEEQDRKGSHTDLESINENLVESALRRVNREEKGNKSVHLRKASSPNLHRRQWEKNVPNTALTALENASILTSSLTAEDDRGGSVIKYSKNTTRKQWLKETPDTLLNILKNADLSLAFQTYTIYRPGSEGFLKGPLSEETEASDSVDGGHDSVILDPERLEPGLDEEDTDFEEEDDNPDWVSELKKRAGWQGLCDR", "assay": "Inhibition of NEK3 ACT labeling site in human Huh-7 cell lysate at 1 uM by KiNativ Profiling analysis relative to control", "assay_type": "subcellular"}, "[4]": {"molecular_target": "Calcium/calmodulin-dependent protein kinase type II subunit delta (Homo sapiens) (UniProt Q13557)", "sequence (Q13557 whole entry)": "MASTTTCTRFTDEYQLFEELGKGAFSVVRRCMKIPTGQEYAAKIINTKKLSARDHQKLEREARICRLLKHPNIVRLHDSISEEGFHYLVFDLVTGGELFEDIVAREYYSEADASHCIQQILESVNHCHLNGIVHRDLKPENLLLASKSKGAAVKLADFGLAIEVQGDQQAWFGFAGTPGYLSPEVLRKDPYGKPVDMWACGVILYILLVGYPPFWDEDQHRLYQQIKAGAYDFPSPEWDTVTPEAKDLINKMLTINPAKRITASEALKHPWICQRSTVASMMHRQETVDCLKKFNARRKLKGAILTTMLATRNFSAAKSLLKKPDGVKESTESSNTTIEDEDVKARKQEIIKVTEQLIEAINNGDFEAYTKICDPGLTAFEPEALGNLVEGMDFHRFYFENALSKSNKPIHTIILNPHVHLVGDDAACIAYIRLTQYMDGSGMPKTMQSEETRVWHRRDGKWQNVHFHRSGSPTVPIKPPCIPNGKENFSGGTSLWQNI", "assay": "Inhibition of CAMK2D (unknown origin) at 1 uM by Ambit Kinomescan binding assay relative to control; values are per cent of control"}, "[5]": {"molecular_target": "Muscle, skeletal receptor tyrosine-protein kinase (Homo sapiens) (UniProt O15146)", "sequence (O15146 whole entry)": "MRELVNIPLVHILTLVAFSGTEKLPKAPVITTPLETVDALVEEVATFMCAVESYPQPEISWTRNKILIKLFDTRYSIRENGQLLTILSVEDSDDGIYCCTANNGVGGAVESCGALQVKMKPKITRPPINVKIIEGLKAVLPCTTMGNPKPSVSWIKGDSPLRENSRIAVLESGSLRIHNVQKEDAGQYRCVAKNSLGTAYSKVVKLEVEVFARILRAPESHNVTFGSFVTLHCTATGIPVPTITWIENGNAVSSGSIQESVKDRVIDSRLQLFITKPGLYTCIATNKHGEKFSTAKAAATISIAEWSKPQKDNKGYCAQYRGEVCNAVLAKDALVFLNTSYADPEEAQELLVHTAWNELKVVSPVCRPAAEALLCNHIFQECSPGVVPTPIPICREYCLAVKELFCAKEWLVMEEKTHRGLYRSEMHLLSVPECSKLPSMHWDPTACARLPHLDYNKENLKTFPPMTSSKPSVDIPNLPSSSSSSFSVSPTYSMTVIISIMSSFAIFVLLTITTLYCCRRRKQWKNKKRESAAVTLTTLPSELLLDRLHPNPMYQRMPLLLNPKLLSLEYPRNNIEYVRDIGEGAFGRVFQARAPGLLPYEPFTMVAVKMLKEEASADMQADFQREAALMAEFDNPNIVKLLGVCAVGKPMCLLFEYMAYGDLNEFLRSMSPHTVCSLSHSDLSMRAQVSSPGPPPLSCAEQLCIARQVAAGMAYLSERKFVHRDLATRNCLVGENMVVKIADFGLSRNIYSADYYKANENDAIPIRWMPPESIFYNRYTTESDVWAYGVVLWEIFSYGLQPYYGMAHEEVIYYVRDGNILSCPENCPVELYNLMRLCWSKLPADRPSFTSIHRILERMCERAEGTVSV", "assay": "Inhibition of MUSK (unknown origin) at 1 uM by Ambit Kinomescan binding assay relative to control; values are per cent of control"}, "[6]": {"molecular_target": "T1, Atrial natriuretic peptide receptor 2 (Homo sapiens) (UniProt P20594)", "T1 sequence (whole entry)": "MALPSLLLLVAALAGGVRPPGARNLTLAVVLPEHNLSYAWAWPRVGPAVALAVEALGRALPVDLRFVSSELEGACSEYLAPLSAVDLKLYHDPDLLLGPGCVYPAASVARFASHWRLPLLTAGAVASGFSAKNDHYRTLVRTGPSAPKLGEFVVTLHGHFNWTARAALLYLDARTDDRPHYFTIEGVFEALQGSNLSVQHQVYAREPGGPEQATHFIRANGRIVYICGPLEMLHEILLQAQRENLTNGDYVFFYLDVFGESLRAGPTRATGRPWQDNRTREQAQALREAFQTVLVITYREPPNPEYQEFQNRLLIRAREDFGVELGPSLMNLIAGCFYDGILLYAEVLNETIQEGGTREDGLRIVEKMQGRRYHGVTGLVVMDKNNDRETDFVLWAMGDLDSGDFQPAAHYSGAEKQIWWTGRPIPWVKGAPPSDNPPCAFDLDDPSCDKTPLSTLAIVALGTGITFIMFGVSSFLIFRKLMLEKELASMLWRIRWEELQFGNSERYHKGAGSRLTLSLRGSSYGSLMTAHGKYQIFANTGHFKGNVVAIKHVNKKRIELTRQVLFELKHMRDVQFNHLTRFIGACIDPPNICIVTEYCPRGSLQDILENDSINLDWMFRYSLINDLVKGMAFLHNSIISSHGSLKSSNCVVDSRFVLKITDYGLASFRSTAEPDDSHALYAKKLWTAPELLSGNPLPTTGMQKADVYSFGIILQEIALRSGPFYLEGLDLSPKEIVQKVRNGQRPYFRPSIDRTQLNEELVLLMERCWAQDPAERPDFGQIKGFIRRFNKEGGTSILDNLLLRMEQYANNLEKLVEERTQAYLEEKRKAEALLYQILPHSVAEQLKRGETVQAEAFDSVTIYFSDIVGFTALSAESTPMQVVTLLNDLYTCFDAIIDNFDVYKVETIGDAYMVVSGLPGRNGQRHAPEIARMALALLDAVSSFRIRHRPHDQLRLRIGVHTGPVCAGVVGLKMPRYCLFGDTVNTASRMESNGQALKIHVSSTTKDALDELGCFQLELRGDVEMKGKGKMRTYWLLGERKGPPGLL", "assay": "Inhibition of ANPb Lys2 labeling site in human A-375 cells at 0.05 uM by KiNativ Profiling analysis relative to control", "assay_type": "cell-based"}, "[7]": {"molecular_target": "Serine/threonine-protein kinase 32C (Homo sapiens) (UniProt Q86UX6)", "sequence (Q86UX6 whole entry)": "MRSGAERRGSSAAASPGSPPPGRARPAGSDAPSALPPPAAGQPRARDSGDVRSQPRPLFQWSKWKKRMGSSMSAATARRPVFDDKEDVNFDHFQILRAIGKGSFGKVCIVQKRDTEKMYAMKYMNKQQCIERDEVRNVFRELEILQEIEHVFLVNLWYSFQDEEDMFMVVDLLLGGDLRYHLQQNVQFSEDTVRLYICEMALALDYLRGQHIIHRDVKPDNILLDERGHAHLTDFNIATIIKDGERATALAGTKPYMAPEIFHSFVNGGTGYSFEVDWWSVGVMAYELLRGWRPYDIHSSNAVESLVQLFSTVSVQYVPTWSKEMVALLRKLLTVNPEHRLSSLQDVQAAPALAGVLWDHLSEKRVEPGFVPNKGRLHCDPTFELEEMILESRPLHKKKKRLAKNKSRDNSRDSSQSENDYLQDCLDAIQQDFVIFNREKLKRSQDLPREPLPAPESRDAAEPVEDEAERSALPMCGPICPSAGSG", "assay": "Inhibition of YANK3 K2 labeling site in human Huh-7 cells at 10 uM by KiNativ Profiling analysis relative to control", "assay_type": "cell-based"}, "[8]": {"molecular_target": "Mitogen-activated protein kinase kinase kinase 10 (Homo sapiens) (UniProt Q02779)", "sequence (Q02779 whole entry, looked up)": "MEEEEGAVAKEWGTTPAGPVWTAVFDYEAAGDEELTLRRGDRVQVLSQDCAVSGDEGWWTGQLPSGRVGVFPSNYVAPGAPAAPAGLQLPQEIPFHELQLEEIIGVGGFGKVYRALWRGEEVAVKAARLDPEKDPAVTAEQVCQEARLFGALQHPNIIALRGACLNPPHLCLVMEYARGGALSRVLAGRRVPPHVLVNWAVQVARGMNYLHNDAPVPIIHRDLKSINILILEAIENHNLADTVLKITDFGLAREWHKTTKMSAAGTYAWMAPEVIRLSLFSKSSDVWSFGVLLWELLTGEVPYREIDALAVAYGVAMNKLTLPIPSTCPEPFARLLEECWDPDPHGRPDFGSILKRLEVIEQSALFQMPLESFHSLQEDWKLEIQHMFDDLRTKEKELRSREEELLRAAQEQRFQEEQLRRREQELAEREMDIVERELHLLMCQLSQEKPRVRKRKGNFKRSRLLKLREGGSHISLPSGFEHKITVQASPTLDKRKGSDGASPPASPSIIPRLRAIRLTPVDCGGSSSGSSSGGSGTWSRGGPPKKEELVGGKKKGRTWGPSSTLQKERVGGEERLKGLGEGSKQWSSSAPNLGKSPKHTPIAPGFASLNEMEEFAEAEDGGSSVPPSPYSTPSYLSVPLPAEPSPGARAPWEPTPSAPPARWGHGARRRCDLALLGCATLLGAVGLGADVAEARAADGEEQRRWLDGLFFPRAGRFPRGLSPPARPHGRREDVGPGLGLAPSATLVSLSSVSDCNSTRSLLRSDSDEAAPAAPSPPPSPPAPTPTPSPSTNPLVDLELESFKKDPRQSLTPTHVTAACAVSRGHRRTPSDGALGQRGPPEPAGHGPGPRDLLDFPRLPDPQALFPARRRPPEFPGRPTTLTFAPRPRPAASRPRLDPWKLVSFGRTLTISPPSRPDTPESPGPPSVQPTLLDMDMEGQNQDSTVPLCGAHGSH", "assay": "Inhibition of MLK2 (unknown origin) at 10 uM by Ambit Kinomescan binding assay"}, "[9]": {"molecular_target": "Ribosomal protein S6 kinase alpha-2 (Homo sapiens) (UniProt Q15349)", "sequence (Q15349 whole entry, the tested form may be a part)": "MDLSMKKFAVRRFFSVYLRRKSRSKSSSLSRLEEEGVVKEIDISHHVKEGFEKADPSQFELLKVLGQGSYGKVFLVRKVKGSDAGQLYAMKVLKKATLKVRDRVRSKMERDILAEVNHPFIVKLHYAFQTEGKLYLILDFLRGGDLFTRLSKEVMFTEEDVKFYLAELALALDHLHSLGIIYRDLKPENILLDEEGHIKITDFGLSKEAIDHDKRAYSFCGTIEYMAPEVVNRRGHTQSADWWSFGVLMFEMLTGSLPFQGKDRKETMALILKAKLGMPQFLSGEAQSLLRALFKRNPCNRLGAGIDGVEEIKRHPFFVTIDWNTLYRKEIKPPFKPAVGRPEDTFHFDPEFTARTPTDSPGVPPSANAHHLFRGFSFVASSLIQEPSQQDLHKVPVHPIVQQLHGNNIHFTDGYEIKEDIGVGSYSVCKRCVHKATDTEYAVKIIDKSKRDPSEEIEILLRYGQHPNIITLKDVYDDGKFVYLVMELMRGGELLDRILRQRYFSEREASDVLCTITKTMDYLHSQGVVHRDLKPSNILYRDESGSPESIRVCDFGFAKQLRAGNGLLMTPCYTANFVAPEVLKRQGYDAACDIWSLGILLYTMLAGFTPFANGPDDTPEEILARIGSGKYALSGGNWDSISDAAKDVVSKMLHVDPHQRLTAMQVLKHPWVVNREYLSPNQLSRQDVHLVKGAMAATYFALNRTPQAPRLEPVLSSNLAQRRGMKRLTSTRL", "assay": "Inhibition of N-terminal RPS6KA2 kinase domain 1 (unknown origin) at 10 uM by Ambit Kinomescan binding assay"}, "[10]": {"molecular_target": "T2, Dual specificity mitogen-activated protein kinase kinase 4 (Homo sapiens) (UniProt P45985)", "T2 sequence (whole entry)": "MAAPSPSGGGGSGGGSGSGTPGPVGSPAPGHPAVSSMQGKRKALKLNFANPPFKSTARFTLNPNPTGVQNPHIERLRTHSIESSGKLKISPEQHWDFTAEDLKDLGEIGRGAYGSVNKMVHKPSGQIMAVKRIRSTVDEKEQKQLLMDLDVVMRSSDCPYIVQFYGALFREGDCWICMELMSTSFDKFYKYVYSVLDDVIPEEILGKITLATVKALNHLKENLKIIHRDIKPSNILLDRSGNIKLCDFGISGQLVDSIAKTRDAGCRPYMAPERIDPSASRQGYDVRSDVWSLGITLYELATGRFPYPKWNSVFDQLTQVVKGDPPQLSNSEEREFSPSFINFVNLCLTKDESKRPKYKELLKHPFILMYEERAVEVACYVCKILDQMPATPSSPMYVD", "assay": "Inhibition of MAP2K4 K2 labeling site harbouring DIKPSNILLDR in human Huh-7 cells at 1 uM by KiNativ Profiling analysis relative to control", "assay_type": "cell-based"}, "[11]": {"molecular_target": "Serine/threonine-protein kinase Nek5 (Homo sapiens) (UniProt Q6P3R8)", "assay": "Inhibition of NEK5 (unknown origin) at 10 uM by Ambit Kinomescan binding assay"}, "[12]": {"molecular_target": "Microtubule-associated serine/threonine-protein kinase 2 (Homo sapiens) (UniProt Q6P0Q8)", "assay": "Inhibition of MAST2 Lys2 labeling site in human A-375 cells at 5 uM by KiNativ Profiling analysis relative to control", "assay_type": "cell-based"}}, "note": "Calls of active or inactive are those of the source. No cut-off for these calls is given here.", "data": [{"molecule": "CNc1cc(Oc2cc(C(=O)Nc3cc(N4CCN(C)CC4)cc(C(F)(F)F)c3)ccc2C)ncn1", "values": [{"measurement": "inhibition", "setting": "[1]", "result": 39.1, "unit": "%"}, {"measurement": "inhibition", "setting": "[2]", "result": 11.2, "unit": "%"}, {"measurement": "inhibition", "setting": "[3]", "result": 9.3, "unit": "%"}]}, {"molecule": "CCN1CCN(Cc2ccc(NC(=O)c3ccc(C)c(/C=C/c4cnc5[nH]ccc5c4OC)c3)cc2C(F)(F)F)CC1", "values": [{"measurement": "residual activity", "setting": "[4]", "result": 100, "unit": "%"}, {"measurement": "residual activity", "setting": "[5]", "result": 2, "unit": "%"}, {"measurement": "inhibition", "setting": "[6]", "result": -8.7, "unit": "%"}]}, {"molecule": "CCN1CCN(Cc2ccc(NC(=O)c3ccc(C)c(Oc4ccnc5[nH]ccc45)c3)cc2C(F)(F)F)CC1", "values": [{"measurement": "inhibition", "setting": "[7]", "result": 2.5, "unit": "%"}, {"measurement": "inhibition", "setting": "[8]", "result": "inactive"}, {"measurement": "inhibition", "setting": "[9]", "result": "inactive"}, {"measurement": "inhibition", "setting": "[10]", "result": -9.3, "unit": "%"}, {"measurement": "inhibition", "setting": "[11]", "result": "inactive"}, {"measurement": "inhibition", "setting": "[12]", "result": -6.1, "unit": "%"}]}]}
